Experimental data reported in article PMC3422893 (Journal of medicinal chemistry, 2011).

Assays:
H1703 xenograft tumors = test: H&E staining and immunohistochemistry of xenograft tumors; format: in vivo, athymic NCr-nu/nu mice
H1703 cells = test: H1703 non-small cell lung cancer xenograft model; format: in vivo, athymic NCr-nu/nu mice; settings: three times a week for 3 weeks
SAPK/JNK = test: Western blot of SAPK/JNK pathway activation in H1703 cells; format: cell-based, human
ATF3 = test: Western blot of ATF3 protein in H1703 cells; format: cell-based, human
PARP = test: Western blot of PARP cleavage; format: cell-based, human; settings: H1703 cells, 1 µM, 1, 4, or 6 h

CCOC(=O)N1CCN(/[N+]([O-])=N/Oc2cc(C)c([N+](=O)[O-])cc2[N+](=O)[O-])CC1 [Compound 6, O^2-(2,4-Dinitro-5-methylphenyl) 1-[(4-Ethoxycarbonyl)piperazin-1-yl]diazen-1-ium-1,2-diolate]
ATF3 protein level in tumors, immunohistochemistry (H1703 xenograft tumors; 8 µmol/kg i.v.): comparable to that of the control
P-SAPK/JNK in tumors, immunohistochemistry (H1703 xenograft tumors; 8 µmol/kg i.v.): did not stain for P-SAPK/JNK
growth of H1703 cells in vivo (H1703 cells; 8 µmol/kg i.v.): did not result in reduction in H1703 tumor growth in vivo

O=S(=O)(O)c1cc(O)c(O)c(S(=O)(=O)O)c1 [Tiron, reference compound]
effect on SAPK/JNK phosphorylation resulting from 1 or 2 (SAPK/JNK; pretreatment 10 mM for 1 h, then 30-min incubation with 1 or 2): attenuated SAPK/JNK phosphorylation

O=C1c2ccccc2-c2n[nH]c3cccc1c23 [1,9-pyrazoloanthrone, reference compound]
effect on 1-induced ATF3 upregulation (ATF3; pretreatment 50 µM, 30 min): partially blocked
effect on 1-induced activation of ATF2 and c-jun (SAPK/JNK; pretreatment 50 µM, 30 min): inhibited

CCOC(=O)N1CCN(/[N+]([O-])=N/Oc2ccc([N+](=O)[O-])cc2[N+](=O)[O-])CC1 [Compound 1, O^2-(2,4-dinitrophenyl) 1-[(4-ethoxycarbonyl)piperazin-1-yl]diazen-1-ium-1,2-diolate]
ATF3 protein expression (ATF3; 1 µM): induced
cleavage of PARP (PARP): resulted in cleavage of PARP
SAPK/JNK activation (phosphorylation) (SAPK/JNK): caused SAPK/JNK activation
time to detection of SAPK/JNK phosphorylation (SAPK/JNK; 1 µM): ≤ 30 min
ATF3 protein level in tumors, immunohistochemistry (H1703 xenograft tumors; 6 µmol/kg i.v.): upregulation in ATF3 protein level
P-SAPK/JNK in tumors, immunohistochemistry (H1703 xenograft tumors; 6 µmol/kg i.v.): phosphorylation of SAPK/JNK
tissue death in tumors, H&E staining (H1703 xenograft tumors; 6 µmol/kg i.v.): significant tissue death
growth of H1703 cells in vivo (H1703 cells; 6 µmol/kg i.v.): significantly reduced growth
